In ChEMBL document CHEMBL1201862, “PubChem BioAssay data set” (2004):
Activity calls are given as the source filed them.

What was measured:
[1] = biological target: Large T antigen (Simian virus 40, UniProt P03070); format: functional, Betapolyomavirus macacae;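 also: Confirmatory-stage PubChem screen for compounds that inhibit SV40 T antigen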
[2] = biological target: T1, Rac GTPase-activating protein 1 (Homo sapiens, UniProt Q9H0H5); assay: MgcRacGAP GTPase-activating activity inhibitors, confirmation, biochemical, ADP Hunter fluorescence, primary and confirmatory (AID 624330); format: functional
T1 sequence (Q9H0H5 whole entry): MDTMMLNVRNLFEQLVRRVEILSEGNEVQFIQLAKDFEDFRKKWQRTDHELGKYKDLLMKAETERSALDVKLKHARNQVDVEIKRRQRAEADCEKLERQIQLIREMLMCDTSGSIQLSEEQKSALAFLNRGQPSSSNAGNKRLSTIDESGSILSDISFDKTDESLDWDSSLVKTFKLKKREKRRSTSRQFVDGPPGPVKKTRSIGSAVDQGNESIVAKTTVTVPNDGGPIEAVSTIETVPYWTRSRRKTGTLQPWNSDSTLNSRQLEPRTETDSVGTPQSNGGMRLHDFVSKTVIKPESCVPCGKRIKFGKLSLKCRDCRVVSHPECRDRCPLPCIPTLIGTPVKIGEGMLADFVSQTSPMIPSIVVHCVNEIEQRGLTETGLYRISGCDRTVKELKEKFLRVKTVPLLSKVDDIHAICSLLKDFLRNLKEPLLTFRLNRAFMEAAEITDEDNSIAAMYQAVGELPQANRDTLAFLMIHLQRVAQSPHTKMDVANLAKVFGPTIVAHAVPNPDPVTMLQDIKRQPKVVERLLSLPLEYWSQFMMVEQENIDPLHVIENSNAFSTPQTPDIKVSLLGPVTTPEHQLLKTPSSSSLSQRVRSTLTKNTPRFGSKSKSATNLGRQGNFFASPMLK

[3] = THP-1 cell cytotoxicity, dose response, cytotoxicity control for non-replicating M. tuberculosis project (AID 489025); format: functional
[4] = cells; format: functional
[5] = biological target: T2, Replicative DNA helicase DnaB (Mycobacterium tuberculosis, UniProt P9WMR3); assay: DnaB intein splicing inhibitors, dose response, biochemical, cell-free fluorescence (AID 449749); format: functional
T2 sequence (P9WMR3 whole entry): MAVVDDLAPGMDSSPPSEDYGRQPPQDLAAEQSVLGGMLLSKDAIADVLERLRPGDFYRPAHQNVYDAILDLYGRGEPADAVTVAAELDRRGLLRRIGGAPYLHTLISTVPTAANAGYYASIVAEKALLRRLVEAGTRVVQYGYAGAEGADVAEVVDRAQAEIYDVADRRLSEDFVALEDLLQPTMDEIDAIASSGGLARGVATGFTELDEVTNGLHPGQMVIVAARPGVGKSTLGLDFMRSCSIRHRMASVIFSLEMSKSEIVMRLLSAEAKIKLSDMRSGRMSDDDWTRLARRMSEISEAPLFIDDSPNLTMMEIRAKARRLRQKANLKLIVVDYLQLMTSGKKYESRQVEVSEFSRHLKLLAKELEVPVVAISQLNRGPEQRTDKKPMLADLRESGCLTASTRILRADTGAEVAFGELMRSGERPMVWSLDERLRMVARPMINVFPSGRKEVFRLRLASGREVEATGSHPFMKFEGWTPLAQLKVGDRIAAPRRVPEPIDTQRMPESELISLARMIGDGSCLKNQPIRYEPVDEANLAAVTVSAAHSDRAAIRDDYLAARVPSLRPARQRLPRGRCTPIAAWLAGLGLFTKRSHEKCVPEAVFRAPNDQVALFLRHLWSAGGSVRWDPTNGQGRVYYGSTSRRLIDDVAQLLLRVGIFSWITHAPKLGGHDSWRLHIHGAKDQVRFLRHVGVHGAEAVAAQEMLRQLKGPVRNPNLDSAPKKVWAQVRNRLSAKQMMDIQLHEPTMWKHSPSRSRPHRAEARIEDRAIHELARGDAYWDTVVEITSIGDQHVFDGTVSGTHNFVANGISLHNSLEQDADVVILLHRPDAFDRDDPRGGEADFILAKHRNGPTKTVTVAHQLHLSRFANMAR

[6] = biological target: T3, Protein RecA (Mycobacterium tuberculosis, UniProt P9WHJ3); assay: Fluorescence Cell-Free Homogeneous Dose Retest to Identify Inhibitors of RecA-Intein Splicing Activity. [Related pubchem assays (depositor defined):AID2097, AID2223, AID489010, AID492950]; format: functional
T3 sequence (P9WHJ3 whole entry): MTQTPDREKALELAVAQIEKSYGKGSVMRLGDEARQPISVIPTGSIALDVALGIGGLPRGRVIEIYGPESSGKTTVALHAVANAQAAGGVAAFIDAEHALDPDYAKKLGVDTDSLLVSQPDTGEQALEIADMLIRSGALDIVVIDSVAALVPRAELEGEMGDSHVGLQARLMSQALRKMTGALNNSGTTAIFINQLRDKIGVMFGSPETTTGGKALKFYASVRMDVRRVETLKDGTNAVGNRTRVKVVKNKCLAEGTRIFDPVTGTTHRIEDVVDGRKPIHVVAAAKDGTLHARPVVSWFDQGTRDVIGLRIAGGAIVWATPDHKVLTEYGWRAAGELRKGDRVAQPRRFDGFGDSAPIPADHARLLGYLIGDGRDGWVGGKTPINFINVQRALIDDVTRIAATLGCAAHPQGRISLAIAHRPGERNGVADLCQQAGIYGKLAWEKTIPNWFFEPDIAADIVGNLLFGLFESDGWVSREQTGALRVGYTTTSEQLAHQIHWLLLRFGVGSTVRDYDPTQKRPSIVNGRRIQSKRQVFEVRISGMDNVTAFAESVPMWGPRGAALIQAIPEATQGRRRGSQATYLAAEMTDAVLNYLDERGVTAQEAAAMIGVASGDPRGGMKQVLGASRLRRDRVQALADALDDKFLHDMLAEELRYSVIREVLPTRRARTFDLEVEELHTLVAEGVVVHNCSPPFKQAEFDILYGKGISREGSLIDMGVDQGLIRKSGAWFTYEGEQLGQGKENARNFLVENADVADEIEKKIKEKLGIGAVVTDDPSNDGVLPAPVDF

[7] = biological target: T4, Leucine aminopeptidase (Plasmodium falciparum 3D7, UniProt Q8IL11); assay: P. falciparum M17LAP inhibitors, primary screen, biochemical, fluorogenic H-Leu-NHMec substrate, 1536-well (AID 1619); format: functional
T4 sequence (Q8IL11 whole entry): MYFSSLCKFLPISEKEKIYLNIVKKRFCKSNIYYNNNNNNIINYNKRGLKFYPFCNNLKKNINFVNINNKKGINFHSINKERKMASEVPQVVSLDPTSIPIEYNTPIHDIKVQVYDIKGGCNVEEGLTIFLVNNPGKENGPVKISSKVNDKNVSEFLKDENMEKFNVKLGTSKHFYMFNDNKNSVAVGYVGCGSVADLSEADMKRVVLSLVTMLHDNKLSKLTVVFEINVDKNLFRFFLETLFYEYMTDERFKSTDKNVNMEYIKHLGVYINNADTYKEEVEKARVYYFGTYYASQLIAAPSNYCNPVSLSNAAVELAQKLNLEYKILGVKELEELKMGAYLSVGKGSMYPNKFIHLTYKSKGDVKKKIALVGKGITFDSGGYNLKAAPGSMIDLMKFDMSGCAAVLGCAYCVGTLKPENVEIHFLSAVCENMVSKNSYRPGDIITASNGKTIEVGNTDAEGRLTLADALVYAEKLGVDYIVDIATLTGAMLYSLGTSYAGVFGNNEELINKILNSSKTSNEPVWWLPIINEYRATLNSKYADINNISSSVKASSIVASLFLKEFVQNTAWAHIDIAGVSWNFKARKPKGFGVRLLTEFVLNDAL

[8] = biological target: T5, Aminopeptidase N (Plasmodium falciparum FcB1/Columbia, UniProt O96935); assay: P. falciparum M1AAP inhibitors, biochemical, fluorogenic H-Leu-NHMec substrate, 1536-well (AID 1445); parameters: species or system Plasmodium falciparum 3D7, 3D7
T5 sequence (O96935 whole entry): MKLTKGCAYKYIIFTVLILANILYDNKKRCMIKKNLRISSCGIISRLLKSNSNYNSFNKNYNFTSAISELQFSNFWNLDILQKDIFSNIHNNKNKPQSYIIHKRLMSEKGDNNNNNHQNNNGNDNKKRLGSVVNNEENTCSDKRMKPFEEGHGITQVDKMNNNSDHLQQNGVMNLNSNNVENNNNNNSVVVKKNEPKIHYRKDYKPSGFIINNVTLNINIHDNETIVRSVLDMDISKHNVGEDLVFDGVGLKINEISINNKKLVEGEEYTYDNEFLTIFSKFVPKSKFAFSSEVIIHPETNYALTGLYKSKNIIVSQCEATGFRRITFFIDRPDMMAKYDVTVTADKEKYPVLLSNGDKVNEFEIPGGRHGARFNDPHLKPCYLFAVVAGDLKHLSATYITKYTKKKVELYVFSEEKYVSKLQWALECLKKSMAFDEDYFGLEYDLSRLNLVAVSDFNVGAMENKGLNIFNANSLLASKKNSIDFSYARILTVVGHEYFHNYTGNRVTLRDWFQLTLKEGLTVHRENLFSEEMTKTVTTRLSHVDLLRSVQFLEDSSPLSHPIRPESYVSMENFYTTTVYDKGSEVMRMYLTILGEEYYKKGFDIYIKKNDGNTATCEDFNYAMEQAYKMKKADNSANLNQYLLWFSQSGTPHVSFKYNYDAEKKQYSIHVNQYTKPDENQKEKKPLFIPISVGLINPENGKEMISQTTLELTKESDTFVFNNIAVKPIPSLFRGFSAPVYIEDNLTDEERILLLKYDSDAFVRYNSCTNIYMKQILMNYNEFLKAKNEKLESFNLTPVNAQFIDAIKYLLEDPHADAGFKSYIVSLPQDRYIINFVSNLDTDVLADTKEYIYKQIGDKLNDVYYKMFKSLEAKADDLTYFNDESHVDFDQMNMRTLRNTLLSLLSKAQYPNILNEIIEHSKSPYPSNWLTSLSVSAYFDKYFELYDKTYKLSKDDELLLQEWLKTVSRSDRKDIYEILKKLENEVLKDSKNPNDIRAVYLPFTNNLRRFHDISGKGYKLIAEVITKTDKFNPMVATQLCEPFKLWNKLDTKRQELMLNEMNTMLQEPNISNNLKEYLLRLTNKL

[9] = inhibitors of Bluetongue virus cytopathic effect, confirmation, arbovirus, BSR cells (AID 1250); format: functional;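 also: protection from viral cytopathic effect measured as cell viability by ATP luminescence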
[10] = NIH-3T3 fibroblast cytotoxicity, dose response, cytotoxicity control, cell-based, fluorescence, Alamar Blue, secondary assay (AID 2327); format: functional;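 also: NIH-3T3 mouse fibroblasts cultured with fluconazole at 8 µg/mL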
[11] = C. albicans growth with fluconazole, confirmation, fluorescence, retest (AID 2467); format: functional, cell-based
[12] = biological target: Genome polyprotein (dengue virus type 2, UniProt P29990); assay: Dengue-2 NS5 methyltransferase inhibitors, primary screen, biochemical, confirmation dose response (AID 588689); format: functional
Genome polyprotein, sequence (P29990 2492-3391 limits assumed): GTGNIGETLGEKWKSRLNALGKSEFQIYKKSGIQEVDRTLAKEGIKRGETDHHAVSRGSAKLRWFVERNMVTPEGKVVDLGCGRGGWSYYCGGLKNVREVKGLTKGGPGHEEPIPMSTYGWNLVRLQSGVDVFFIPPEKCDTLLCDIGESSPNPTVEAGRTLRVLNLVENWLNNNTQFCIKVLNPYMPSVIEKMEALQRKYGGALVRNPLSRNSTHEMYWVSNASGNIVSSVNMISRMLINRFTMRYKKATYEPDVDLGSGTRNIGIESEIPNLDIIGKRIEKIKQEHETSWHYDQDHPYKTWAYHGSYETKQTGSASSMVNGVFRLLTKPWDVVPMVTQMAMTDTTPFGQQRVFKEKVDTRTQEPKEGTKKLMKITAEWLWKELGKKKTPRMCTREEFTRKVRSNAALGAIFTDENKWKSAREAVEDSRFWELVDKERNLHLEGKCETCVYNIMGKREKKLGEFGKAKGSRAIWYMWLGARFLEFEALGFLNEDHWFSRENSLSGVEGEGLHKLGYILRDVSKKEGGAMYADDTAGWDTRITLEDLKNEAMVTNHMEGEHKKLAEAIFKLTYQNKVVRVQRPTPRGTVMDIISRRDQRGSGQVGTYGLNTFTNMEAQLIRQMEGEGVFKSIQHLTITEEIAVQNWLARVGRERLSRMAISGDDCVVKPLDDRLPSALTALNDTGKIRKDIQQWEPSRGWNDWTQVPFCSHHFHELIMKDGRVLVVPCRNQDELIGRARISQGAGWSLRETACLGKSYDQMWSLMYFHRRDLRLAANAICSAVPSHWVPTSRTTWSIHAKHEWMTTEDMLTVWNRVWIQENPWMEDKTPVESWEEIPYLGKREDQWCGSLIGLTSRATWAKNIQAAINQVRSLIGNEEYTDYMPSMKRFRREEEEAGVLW

[13] = biological target: Cytochrome P450 2D6 (Homo sapiens, UniProt P10635);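 also: CYP2D6 member of a cytochrome P450 panel assay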
Cytochrome P450 2D6, sequence (P10635 whole entry): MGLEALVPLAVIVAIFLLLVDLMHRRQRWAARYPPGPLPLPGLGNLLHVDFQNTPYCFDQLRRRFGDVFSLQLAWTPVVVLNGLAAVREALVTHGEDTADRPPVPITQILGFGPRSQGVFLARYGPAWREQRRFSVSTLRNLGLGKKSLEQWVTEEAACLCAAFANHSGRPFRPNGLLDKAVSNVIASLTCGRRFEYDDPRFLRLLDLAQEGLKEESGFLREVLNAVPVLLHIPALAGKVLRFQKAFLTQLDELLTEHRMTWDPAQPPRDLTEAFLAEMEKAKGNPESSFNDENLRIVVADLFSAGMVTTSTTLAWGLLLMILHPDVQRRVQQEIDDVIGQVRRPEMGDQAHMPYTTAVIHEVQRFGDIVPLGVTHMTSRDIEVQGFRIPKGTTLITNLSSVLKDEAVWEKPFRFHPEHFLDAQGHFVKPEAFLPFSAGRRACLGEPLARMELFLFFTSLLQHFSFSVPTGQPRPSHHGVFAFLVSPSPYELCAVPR

[14] = biological target: T6, Cytochrome P450 1A2 (Homo sapiens, UniProt P05177);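 also: PubChem cytochrome P450 panel assay, CYP1A2 panel member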
T6 sequence (P05177 whole entry): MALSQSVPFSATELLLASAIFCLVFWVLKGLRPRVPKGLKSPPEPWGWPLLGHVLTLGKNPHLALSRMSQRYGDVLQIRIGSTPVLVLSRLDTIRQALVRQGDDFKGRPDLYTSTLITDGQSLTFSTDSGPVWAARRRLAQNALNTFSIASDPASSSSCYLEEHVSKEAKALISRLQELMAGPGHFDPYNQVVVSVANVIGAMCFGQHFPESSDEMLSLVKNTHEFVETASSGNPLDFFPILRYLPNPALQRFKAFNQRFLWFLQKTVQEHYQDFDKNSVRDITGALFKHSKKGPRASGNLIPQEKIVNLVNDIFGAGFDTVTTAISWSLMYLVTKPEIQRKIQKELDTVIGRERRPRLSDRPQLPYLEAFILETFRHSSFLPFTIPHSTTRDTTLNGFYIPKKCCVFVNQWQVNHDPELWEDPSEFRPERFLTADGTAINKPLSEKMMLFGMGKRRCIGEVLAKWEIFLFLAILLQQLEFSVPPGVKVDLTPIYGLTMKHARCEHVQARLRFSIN

[15] = biological target: DNA dC->dU-editing enzyme APOBEC-3A (Homo sapiens, UniProt P31941); assay: Dose Response confirmation of small molecule APOBEC3A DNA Deaminase Inhibitors via a fluorescence-based single-stranded DNA deaminase assay. [Related pubchem assays (depositor defined):AID493011, AID493024]; format: functional
DNA dC->dU-editing enzyme APOBEC-3A, sequence (P31941 whole entry): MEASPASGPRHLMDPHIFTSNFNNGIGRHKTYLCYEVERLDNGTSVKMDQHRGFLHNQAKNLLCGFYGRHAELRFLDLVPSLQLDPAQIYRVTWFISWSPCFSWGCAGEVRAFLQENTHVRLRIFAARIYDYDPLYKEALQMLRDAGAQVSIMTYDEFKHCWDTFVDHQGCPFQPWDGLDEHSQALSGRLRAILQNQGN

Large T antigen, sequence (P03070 whole entry): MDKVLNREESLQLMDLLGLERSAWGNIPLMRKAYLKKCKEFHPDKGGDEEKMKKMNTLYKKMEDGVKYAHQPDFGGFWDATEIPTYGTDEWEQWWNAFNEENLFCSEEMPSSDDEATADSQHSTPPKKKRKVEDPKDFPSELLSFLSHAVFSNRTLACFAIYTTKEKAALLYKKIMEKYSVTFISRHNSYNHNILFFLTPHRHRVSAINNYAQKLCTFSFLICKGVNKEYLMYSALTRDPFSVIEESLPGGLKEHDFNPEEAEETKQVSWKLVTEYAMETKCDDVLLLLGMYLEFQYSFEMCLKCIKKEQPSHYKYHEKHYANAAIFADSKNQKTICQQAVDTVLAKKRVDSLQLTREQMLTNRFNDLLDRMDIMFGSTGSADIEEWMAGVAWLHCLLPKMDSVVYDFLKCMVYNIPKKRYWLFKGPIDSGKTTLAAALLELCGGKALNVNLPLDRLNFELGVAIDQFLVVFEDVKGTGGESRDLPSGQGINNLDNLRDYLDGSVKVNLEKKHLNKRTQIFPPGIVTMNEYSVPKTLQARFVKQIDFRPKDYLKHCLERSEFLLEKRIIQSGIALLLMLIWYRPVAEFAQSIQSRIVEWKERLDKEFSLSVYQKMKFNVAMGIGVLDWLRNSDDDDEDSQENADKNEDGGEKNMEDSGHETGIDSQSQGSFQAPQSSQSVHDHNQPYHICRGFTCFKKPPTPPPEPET

For `CN(C)c1ccc(NC(=O)CN2C(=O)CN=C(c3ccccc3)c3ccccc32)cc1`, the IC50 [1] was 11.9 µM (active) and the IC50 [2] was 72 µM (active).
For `COC(=O)c1ccccc1Sc1ncnc2onc(C)c12`, the CC50 [3] was > 40 µM (active), the IC50 [4] was 10.9 µM (active) and the AC50 [5] was 12.4 µM (active). For the same molecule, the EC50 [6] was 9.04 µM (active).
With `O=C1NC(=O)N(Cc2ccccc2)C(=O)/C1=C/NNC(=O)c1ccccc1O` the IC50 [7] was 62.3 µM (active), the IC50 [8] was 17.3 µM (active) and the IC50 [9] was 97.4 µM (active).
With `Cc1nc(N)sc1N=Nc1c(C)n(C)n(-c2ccccc2)c1=O` the IC50 [1] was 17.3 µM (active).
In the case of `O=C1NC2(CCC3(CC2)OCCO3)NN1c1ccc(Cl)cc1`, the EC50 [10] is reported as > 150 µM (inactive), the EC50 [11] is reported as 1.64 µM (active) and the CC50 [3] is reported as > 40 µM (active).
In the case of `COc1cc(/C=C2\C(=O)NC(=O)N(CCc3ccc(F)cc3)C2=O)ccc1O`, the IC50 [7] is reported as 15.8 µM (active) and the IC50 [1] is reported as 20 µM (active).
In the case of `O=C1Nc2ccc(F)cc2C12Nc1ccccc1-c1nnc(SCc3ccccc3F)nc1O2` (stereo unspecified), the IC50 [8] is reported as 68.4 µM (active), the IC50 [12] is reported as 30.8 µM (active) and the AC50 [13] is reported as 14.1 µM (inconclusive). For the same molecule, the AC50 [14] was 10 µM (inconclusive).
In the case of `CCC(Oc1ccccc1OC)C(=O)Nc1ccc2c(c1)OCCO2` (stereo unspecified), the IC50 [15] is reported as 6.09 µM (active).
For `COc1cc(/C=N/Nc2ccnc(O)n2)ccc1O`, the IC50 [1] was 6.16 µM (active).
